Reference: paper PMC11170759, “Advancing Parkinson’s Disease Diagnostics: The Potential of Arylpyrazolethiazole Derivatives for Imaging α-Synuclein Aggregates” (ACS Omega, 2024)
Several values for one entry are separate records, joined by “and”; a condition that tells them apart may be missing. Equal entries are not always repeated.

Assays:
α-synuclein aggregates = target: α-synuclein aggregates; design: method as in PMID 34577548; details: literature ligands of Figure 1; read-out: Ki α-syn; cited from earlier work
Aβ1-42 = target: Aβ1-42; design: method as in PMID 34577548; details: literature ligands of Figure 1; cited from earlier work
[1] = target: human recombinant α-syn fibrils (Homo sapiens, UniProt P37840); assay: In vitro competition binding assay against [3H]MODAG-001 on α-syn fibrils; details: for Ki: competition against 1 nM [3H]MODAG-001, α-syn fibrils 50 nM, mean Ki ± SEM; for binding affinity to α-syn fibrils (in words): competition against [3H]MODAG-001; for selectivity for α-syn over Aβ: ratio of Ki Aβ to Ki α-syn fibrils
Protocol: (§1) The APT library underwent in vitro testing to evaluate its binding affinity to human recombinant α-syn fibrils. Promising compounds were further tested on Aβ fibrils. […] Since the DPP and APT class of compounds share similarities, the APT library was tested in a competition binding assay with [^3H]MODAG-001 to determine its relative binding affinity and inhibition constant (Ki). The binding assay measured the displacement of the radioligand by increasing concentrations of competitor compounds, using fixed concentrations of fibrils and radioligand.
(§2) The dissociation constant (Kd) values of [^3H]MODAG–001 for human recombinant α-syn and synthetic human Aβ1–42 fibrils have previously been determined using saturation binding assays.[30] To determine the relative binding affinity (inhibition constant, Ki) of test compounds, competition binding assays of [^3H]MODAG-001 were performed. […] Human recombinant α-syn (50 nM) and synthetic human Aβ1–42 fibrils (1 μM) diluted in PBS (Gibco DPBS, no calcium, no magnesium, Thermo Fisher Scientific, Waltham, MA, USA) were incubated with increasing concentrations of test compounds (5 pM to 10 μM) against 1 nM [^3H]MODAG–001 in 30 mM Tris–HCl, 0.1% bovine serum albumin, and 0.05% Tween20 in 96-well micro test low-binding plates (ratiolab GmbH, Dreieich, Germany) to a total volume of 200 μL/well. Plates were incubated on a shaker (MaxQ 6000, Thermo Fisher Scientific Inc., Marietta, OH, USA) at 50 rpm for 2 h at 37 °C, covered by removable sealing tapes (PerkinElmer, Waltham, MA, USA). Vacuum filtration and read-out were performed as previously reported (Kuebler, Buss et al. 2021). Briefly, a glass fiber Filtermat B (PerkinElmer, Waltham, MA, USA) incubated with 0.5% polyethylenimine (PEI; Sigma-Aldrich Chemie GmbH, Taufkirchen, Germany) for 30 min at 4 °C before filter harvesting was used with a FilterMate Harvester (PerkinElmer, Waltham, MA, USA). Melt-on scintillator sheets (MeltiLex B/HS, PerkinElmer, Waltham, MA, USA) were molten onto dried filters. Accumulation of tritium was counted in a liquid scintillation Wallac MicroBeta TriLux counter (PerkinElmer, Waltham, MA, USA) at 2 min per well. Radioactivity in counts per minute for each concentration of the test compound was normalized to the radioactivity obtained in the absence of the test compound for conversion to percentage binding of the reference tracer. The resulting values were plotted against increasing concentrations of the test compounds. Data points were fitted using nonlinear regression analysis in GraphPad Prism (GraphPad Software, Inc., Version 8.4.0, La Jolla, CA, USA). The binding curve for [^3H]MODAG-001 saturation assay on α-syn fibrils is reported in the Supporting Information (Figure S6).

[2] = target: T1, synthetic human Aβ1–42 fibrils (Homo sapiens, UniProt P05067); assay: In vitro competition binding assay against [3H]MODAG-001 on Aβ1–42 fibrils; details: for Ki: competition against 1 nM [3H]MODAG-001, Aβ1–42 fibrils 1 μM, mean Ki ± SEM
T1 construct: Synthetic lyophilized human Aβ1–42 peptide; purchased EMC Microcollections GmbH (Tuebingen, Germany); host or cells: chemical synthesis
T1 sequence (P05067 672-713): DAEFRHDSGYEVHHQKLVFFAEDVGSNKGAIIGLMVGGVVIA
Protocol: as §1
α-Syn fibrils were generated as the previously reported method.[30] The generation of Aβ1–42 fibril was adapted from Bagchi et al. and previously described by Kuebler et al.[16],[31] Synthetic lyophilized human Aβ1–42 peptide with >90% purity purchased from EMC Microcollections GmbH (Tuebingen, Germany) was dissolved in dimethyl sulfoxide (DMSO; 5 mg in 221.5 μL). Deionized water (4.1 mL) and 1 M Tris–HCl (111 μL, pH 7.6) were added to obtain a final monomeric concentration of 250 μM. Aggregation was induced by incubating the monomers in Eppendorf Thermomixer at 37 °C with shaking at 800 rpm for 72 h. Generated fibrils were sonicated for 3 min in a water bath (Elmasonic S 60H, Elma Schmidbauer GmbH, Singen, Germany). The final products were aliquoted, frozen on dry ice, and stored at −80 °C until use. Aβ1–42 fibril quality was evaluated via thioflavin (ThT) fluorescence and radioligand saturation assay with [^3H]PiB and [^3H]MODAG-001.
as §2

Aβ1-42 fibrils = target: Aβ1-42 fibrils; design: method as in PMID 33369690; details: saturation binding, recombinant fibrils; read-out: Kd Aβ1-42 (reported); cited from earlier work
α-syn fibrils = target: α-syn fibrils; design: method as in PMID 33369690; details: saturation binding, recombinant fibrils; cited from earlier work
[3] = In vivo PET/MR imaging in healthy wild-type mice; design: species or system mice (C57BL/6J); details: iv
Protocol: To assess the pharmacokinetic profile of [^11C]APT-13 in vivo, wild-type mice (n = 3) were iv injected, and the organ distribution was assessed over 60 min with dynamic PET and anatomical MR imaging (Figure 7A). […] Tracer clearance was largest through the liver (SUV ≈ 5), and high uptake was also observed in the heart (SUV ≈ 6) and lungs (SUV ≈ 5). Uptake with fast clearance was also observed in the kidney, indicating renal excretion within the first few minutes (Figure 7C).
To evaluate the pharmacokinetics of [^11C]APT-13, PET and subsequent MRI scans were performed in healthy mice (female, 21 weeks old, C57BL/6J) to determine brain uptake and washout as well as organ uptake of the liver, lungs, heart, kidneys, and brain. Scans were performed in a small animal Inveon PET scanner (Siemens Healthcare, Erlangen, Germany) and a 7T small animal MRI scanner (Bruker BioSpin GmbH, Ettlingen, Germany). The mice (n = 3) were anesthetized with 1.5% isoflurane evaporated in 100% oxygen at a flow of 0.8 L/min, and a catheter was placed in the tail vein. The body temperature was kept at 37 °C by using a feedback temperature control unit for a heat pump that was connected to the PET bed. Five seconds after the start of the PET acquisition, 15.2 ± 0.5 MBq (410 ± 13 μCi) of [^11C]APT-13 was injected intravenously. PET data were acquired in a dynamic scan for 60 min plus an extra 13 min of transmission measurement with a ^57Co-source for attenuation correction. Subsequently, mice were placed in the same bed position in the MRI, and an anatomical scan was performed using a Turbo RARE T2 sequence. For analysis, the 60 min of acquired PET data were divided into 39-time frames (12 × 5, 6 × 10, 6 × 30, 5 × 60, and 10 × 300 s) and reconstructed using the OSEM3D reconstruction algorithm. The PET scans were coregistered to the whole-body MRI scan using PMOD software (version 4.203; PMOD Technologies, Zürich, Switzerland), and the volume of interest (VOI) of the different organs (liver, lungs, heart, kidney, and brain) were hand-drawn according to the anatomical localization. VOI were selected from the mouse brain atlas in PMOD, time activity curves were extracted, and SUV were calculated by normalizing to the injected activity and animal weight.

[4] = LogD determination (octanol/PBS); format: physicochemical; details: n = 3
Protocol: The logD was calculated experimentally by adding [^11C]APT-13 (1.5 MBq) to a 1.5 mL Eppendorf vial containing 500 μL of octanol (OCT) and 500 μL of PBS. The vial was vigorously vortexed and then, to achieve effective phase separation, centrifuged. Aliquots of 350 μL were collected from both OCT and PBS phases. The OCT sample was further washed with 350 μL of PBS; the phases mixture was shaken and centrifuged, and 200 μL of both phases were taken into new reaction tubes. The amount of radioactivity in each sample was quantified using a γ-counter. The log OCT/PBS values were calculated from the mean of n = 3 determinations (Table S3).
Table S3. Results from LogD determination assay.
C-11 CPM Description Mean value Mean value * dil

Serum stability assay = format: in vitro ADME; details: 37 °C, within 90 min
Protocol: Human serum was obtained from human male AB plasma, USA origin, sterile-filtered (Sigma-Aldrich, St. Louis, MO, USA).
The tracer formulation was mixed with an equal volume of human serum (250 μL) and incubated into a thermo-shaker at 37 °C, 300 rpm. At different time points (0, 15, 30, 60, and 90 min), 70 μL samples were drawn and mixed with ice-cold acetonitrile (1:1 dilution) and quickly vortexed. The dilute sample was incubated for 2 min on ice and centrifuged (MiniSpin centrifuge, Eppendorf) for 2 min at 13,400 rpm. An aliquot of the supernatant (120 μL) was analyzed by analytical radio-HPLC on a Luna C18(2), 5 μm, 250 × 4.6 mm column with 35% ACN in 0.1% aqueous TFA as mobile phase and at a flow rate of 1.5 mL/min in 10 min. The radiolabeled product was eluted at a retention time of 5.9 ± 0.2 min (Figure S5).

COc1ccc(/C=C/c2cc(-c3nccs3)on2)cc1 [11b]
Ki (α-synuclein aggregates): 18.5 ± 9.2 nM
Ki (Aβ1-42): 91.5 ± 58.7 nM

c1csc(-c2cc(-c3ccc4c(c3)OCO4)n[nH]2)n1 [APT-1, 2-(3-(Benzo[d][1,3]dioxol-5-yl)-1H-pyrazol-5-yl)thiazole]
Ki [1]: 145 ± 46 nM
binding affinity to α-syn fibrils (in words) [1]: moderate affinity
Ki [2]: 561 nM
binding to Aβ fibrils (in words) ([2]; competition against [3H]MODAG-001): significantly lower binding

c1coc(-c2cc(-c3ccc4c(c3)OCO4)n[nH]2)n1 [APT-2, 2-(3-(Benzo[d][1,3]dioxol-5-yl)-1H-pyrazol-5-yl)oxazole]
Ki [1]: 134 nM

O=C(/C=C/c1ccc2c(c1)OCO2)c1nccs1 [APT-3, (E)-3-(Benzo[d][1,3]dioxol-5-yl)-1-(thiazol-2-yl)prop-2-en-1-one]
Ki [1]: > 894 nM

Brc1csc(-c2cc(-c3ccc4c(c3)OCO4)n[nH]2)n1 [APT-4, 2-(3-(Benzo[d][1,3]dioxol-5-yl)-1H-pyrazol-5-yl)-4-bromothiazole]
Ki [1]: 50 nM and 49.7 nM
selectivity for α-syn over Aβ [1]: > 8 fold
Ki [2]: 1030 ± 562 nM

CN(C)c1ccc(-c2cc(-c3nccs3)[nH]n2)cc1 [APT-5, N,N-Dimethyl-4-(5-(thiazol-2-yl)-1H-pyrazol-3-yl)aniline]
Ki [1]: 217 nM

FCCNc1ccc(-c2cc(-c3nccs3)[nH]n2)cc1 [APT-6, N-(2-Fluoroethyl)-4-(5-(thiazol-2-yl)-1H-pyrazol-3-yl)aniline]
Ki [1]: 184 nM
binding affinity to α-syn fibrils (in words) [1]: modest affinity

CNc1ccc(-c2cc(-c3nccs3)[nH]n2)cc1 [APT-7, N-Methyl-4-(5-(thiazol-2-yl)-1H-pyrazol-3-yl)aniline]
Ki [1]: 45 nM and 44.5 nM
selectivity for α-syn over Aβ [1]: > 20 fold
Ki [2]: 381 ± 217 nM

Cn1nc(-c2ccc3c(c2)OCO3)cc1-c1nccs1 [APT-8, 2-(3-(Benzo[d][1,3]dioxol-5-yl)-1-methyl-1H-pyrazol-5-yl)thiazole]
Ki [1]: > 14200 nM

Brc1cnc(-c2cc(-c3ccc4c(c3)OCO4)n[nH]2)s1 [APT-9, 2-(3-(Benzo[d][1,3]dioxol-5-yl)-1H-pyrazol-5-yl)-5-bromothiazole]
Ki [1]: 187 nM
binding affinity to α-syn fibrils (in words) [1]: poor binding
Ki [2]: 230 nM

Fc1csc(-c2cc(-c3ccc4c(c3)OCO4)n[nH]2)n1 [APT-10, 2-(3-(Benzo[d][1,3]dioxol-5-yl)-1H-pyrazol-5-yl)-4-fluorothiazole]
Ki [1]: 818.4 ± 1.8 nM

CNc1ccc(/C=C/C(=O)c2nccs2)cc1 [APT-11, (E)-3-(4-(Methylamino)phenyl)-1-(thiazol-2-yl)prop-2-en-1-one]
Ki [1]: 1010 ± 34 nM
Ki [2]: 377 nM

CNc1ccc(/C=C/C(=O)c2nc(Br)cs2)cc1 [APT-12, (E)-1-(4-Bromothiazol-2-yl)-3-(4-(methylamino)phenyl)prop-2-en-1-one]
Ki [1]: 198 ± 142 nM
Ki [2]: 587 nM

CNc1ccc(-c2cc(-c3nc(Br)cs3)[nH]n2)cc1 [APT-13, 4-(5-(4-Bromothiazol-2-yl)-1H-pyrazol-3-yl)-N-methylaniline]
Ki [1]: 27.8 ± 9.7 nM
Ki [2]: 92.6 ± 48.8 nM

Cn1nc(-c2ccc3c(c2)OCO3)cc1-c1nc(Br)cs1 [APT-14, 2-(3-(Benzo[d][1,3]dioxol-5-yl)-1-methyl-1H-pyrazol-5-yl)-4-bromothiazole]
binding affinity to α-syn fibrils (in words) [1]: loss of competition

O=C(/C=C/C=C/C=C/c1ccc([N+](=O)[O-])cc1)c1ccc(OCC(O)CF)cc1 (centres unmarked) [FHCL-2]
Ki (α-synuclein aggregates): 3.4 ± 0.1 nM
Ki Aβ1-42 (Aβ1-42): no competition

CN(C)c1ccc(-c2cc(-c3ccnc(Br)c3)[nH]n2)cc1 [MODAG-001]
Kd (Aβ1-42 fibrils): 20 ± 10 nM
Kd (α-syn fibrils): 0.6 ± 0.1 nM

[11CH3]Nc1ccc(-c2cc(-c3nc(Br)cs3)[nH]n2)cc1 [[^11C]APT-13]
SUV heart ([3]; n = 3): ≈ 6
SUV liver ([3]; n = 3): ≈ 5
SUV lungs ([3]; n = 3): ≈ 5
peak SUV in brain ([3]; n = 3, dynamic PET 60 min): 1.94 ± 0.29
logD [4]: 3.16
stability in human serum (Serum stability assay): did not show evidence of degradation

Fc1ccc(-c2csc(-c3nc(-c4cnc5c(c4)OCO5)cs3)n2)cn1 [d8]
Ki (α-synuclein aggregates): 0.1 nM
Ki (Aβ1-42): 386 nM
